The values that follow are results of earlier work, collected in patent US20090018125A1, “Pharmaceutical Composition and Its Use” (Tillotts Pharma AG, priority 2004, published 2009).

The data set has as its system human squamous carcinoma line and multidrug-resistant and carboplatin-resistant variants. The note with it: cells pre-treated with GLA.

For `CCCCC/C=C\C/C=C\C/C=C\CCCCC(=O)O` [GLA, gamma-linoleic acid], the “enhancement of vincristine toxicity” value is “up to 40%”. The “enhancement of toxicity of carboplatin” value (depending on GLA concentration, human squamous carcinoma and carboplatin-resistant variant cell lines) is on record as at least 50%.
